These results are taken from article PMC8389697, “Development and Characterization of a Novel Peptide—Drug Conjugate with DM1 for Treatment of FGFR2-Positive Tumors” (Biomedicines, 2021).

The conditions of data set [1]: once per week; no reference given; cited from earlier work. An excerpt: We investigated the antitumor efficacy of those two PDCs on xenografted mice in vivo.
The next data set deals with MCF-7 cells. In words: Clone formation experiment. It is filed as cell-based, human. Particulars: MCF-7, 200 cells per well, 1 week, crystal violet; performed three times. The procedure: We seeded 200 cells per well in 6-well plates with culture medium. After 12 h, the cells were incubated with different agents for 1 week at 37 °C with 5% CO2. Then, we washed the wells with PBS, fixed the cells with methanol for 10 min and stained them with crystal violet at room temperature. Finally, we washed them with sterile water several times in order to obtain a clean background, and then, the colonies formed were photographed and statistically analyzed.

Data set [2] deals with T1, FGFR2 extracellular motif protein (UniProt P21802 22-377).
T1 construct: fibroblast growth factor receptor 2 (FGFR2), recombinant, 'extracellular motif protein'; No catalogue number is printed; limits, isoform (IIIb or IIIc) and tag of the bought protein are unknown; also called FGFR2 protein; recombinant proteins of the FGFR2; source: bought: Sino Biological
Briefly: ITC; ITC200, 25 °C, both dissolved in sterile water; 0.1 mM peptide in the sample cell, 0.001 mM FGFR protein in the syringe; 19 injections of 2 µL, 5 min apart. Particulars: both partners purified. (In ITC the heat of successive injections is recorded.)

Square brackets hold non-standard residues; d marks the D form. Ends that are not written are not given here. Hyp = O=C(O)[C@@H]1C[C@@H](O)CN1; Aad = N[C@@H](CCCC(=O)O)C(=O)O; Cit = NC(=O)NCCC[C@H](N)C(=O)O; Nva = CCC[C@H](N)C(=O)O; Ac3c = NC1(C(=O)O)CC1

A word on the Kd: it is the constant that tells how readily two partners part at equilibrium.

T1 sequence (P21802 22-377): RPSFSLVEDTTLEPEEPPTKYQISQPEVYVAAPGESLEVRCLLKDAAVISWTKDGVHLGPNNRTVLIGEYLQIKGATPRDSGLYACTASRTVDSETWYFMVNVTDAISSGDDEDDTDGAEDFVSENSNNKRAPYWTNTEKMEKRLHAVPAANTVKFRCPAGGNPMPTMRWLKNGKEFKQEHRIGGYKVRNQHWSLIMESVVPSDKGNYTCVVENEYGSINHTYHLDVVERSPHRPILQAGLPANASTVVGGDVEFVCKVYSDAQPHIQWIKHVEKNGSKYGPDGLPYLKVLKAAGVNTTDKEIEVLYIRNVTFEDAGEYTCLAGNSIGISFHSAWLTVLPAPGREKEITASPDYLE

Take `COc1cc2cc(c1Cl)N(C)C(=O)C[C@H](OC(=O)[C@H](C)N(C)C(=O)CCS)[C@]1(C)O[C@H]1[C@H](C)[C@@H]1C[C@@](O)(NC(=O)O1)[C@H](OC)/C=C/C=C(\C)C2` [DM1, reference compound]: the “tolerated concentrations in mice” value in data set [1] was 1.0 to 1.5 mg/kg. Besides, the “concentration that completely suppresses clone formation” value in the data set on MCF-7 cells came to 0.001 µg/mL.

B1: LLC2B (peptide)
chain: [Hyp][dL][Cit][dD][dN][dK][Ac3c][Nva][Aad]
For the molecule B1, in data set [2], the Ka was determined as 1.04e+09 M⁻¹ and binding was characterised by a dissociation constant (Kd) of 960 pM.
